Results taken from paper PMC8699473, “An Easily Expandable Multi-Drug LC-MS Assay for the Simultaneous Quantification of 57 Oral Antitumor Drugs in Human Plasma” (Cancers, 2021).

Experiments:
[1] = Autosampler stability of ready for injection samples; assay type: physicochemical, human
[2] = Freeze-thaw stability in spiked pooled human plasma; assay type: physicochemical
[3] = design: method as in supplement references [1-55] as printed per drug; conditions: minimum steady-state blood plasma concentration after multiple dose administration; ref supplement references [1-55] per drug; cited from earlier work

Row | SMILES | Autosampler (24h, 4°C) Accuracy [%] ([1]; validation standard 2xLLOV) | Autosampler (72h, 4°C) Accuracy [%] ([1]; validation standard 2xLLOV) | Autosampler (24h, 4°C) Accuracy [%] ([1]; validation standard LLOV) | Autosampler (72h, 4°C) Accuracy [%] ([1]; validation standard LLOV) | Autosampler (24h, 4°C) Accuracy [%] ([1]; validation standard MOV) | Autosampler (72h, 4°C) Accuracy [%] ([1]; validation standard MOV) | Autosampler (24h, 4°C) Accuracy [%] ([1]; validation standard ULOV) | Autosampler (72h, 4°C) Accuracy [%] ([1]; validation standard ULOV) | Freeze-Thaw Accuracy [%] ([2]; validation standard 2xLLOV) | Freeze-Thaw Accuracy [%] ([2]; validation standard LLOV) | Freeze-Thaw Accuracy [%] ([2]; validation standard MOV) | Freeze-Thaw Accuracy [%] ([2]; validation standard ULOV) | cmin [3]
1 | Cc1ccc(Nc2nccc(N(C)c3ccc4c(C)n(C)nc4c3)n2)cc1S(N)(=O)=O [Pazopanib] | 103.7% | 99.4% | 101.3% | 99.0% | 101.7% | 97.9% | 99.8% | 99.0% | 103.5% | 102.7% | 103.9% | 100.5% | 24000 ng/mL
2 | Nc1cccc2c1CN(C1CCC(=O)NC1=O)C2=O (stereo not shown) [Lenalidomide] | 117.5% | 109.8% | 80.7% | 95.6% | 107.0% | 100.0% | 100.8% | 98.9% | 104.4% | 91.0% | 97.3% | 96.8% | 13 ng/mL
3 | CNC(=O)c1cc(Oc2ccc(NC(=O)Nc3ccc(Cl)c(C(F)(F)F)c3)c(F)c2)ccn1 [Regorafenib] | 101.6% | 101.1% | 107.3% | 102.1% | 101.4% | 104.4% | 104.2% | 99.3% | 97.1% | 101.6% | 96.2% | 98.6% | 1400 ng/mL
4 | CC(C)(C)c1nc(-c2cccc(NS(=O)(=O)c3c(F)cccc3F)c2F)c(-c2ccnc(N)n2)s1 [Dabrafenib] | 97.9% | 99.3% | 93.5% | 93.1% | 102.1% | 99.8% | 100.7% | 101.4% | 97.8% | 93.9% | 99.0% | 97.6% | 46.6 ng/mL
5 | CNC(=O)c1ccc(N2C(=S)N(c3cnc(C#N)c(C(F)(F)F)c3)C(=O)C23CCC3)cc1F [Apalutamide] | 102.1% | 105.1% | 97.2% | 102.8% | 106.8% | 106.0% | 102.6% | 106.5% | 95.6% | 93.8% | 94.8% | 95.7% | 3700 ng/mL
6 | CNC(=O)c1ccccc1Sc1ccc2c(/C=C/c3ccccn3)n[nH]c2c1 [Axitinib] | 101.2% | 104.9% | 105.9% | 97.7% | 102.7% | 100.0% | 100.4% | 99.1% | 108.3% | 102.1% | 105.4% | 104.0% | 5 ng/mL
7 | CCOc1cc2ncc(C#N)c(Nc3ccc(OCc4ccccn4)c(Cl)c3)c2cc1NC(=O)/C=C/CN(C)C [Neratinib] | 95.7% | 100.1% | 75.2% | 73.8% | 103.1% | 100.5% | 93.3% | 96.0% | 82.2% | 64.7% | 88.9% | 87.2% | 52.6 ng/mL
8 | Nc1cccc2c1C(=O)N(C1CCC(=O)NC1=O)C2=O (stereo not shown) [Pomalidomide] | 104.1% | 103.5% | 104.9% | 96.5% | 104.5% | 97.7% | 100.5% | 97.9% | 90.9% | 74.4% | 90.1% | 92.4% | 10.9 ng/mL
9 | N#CC[C@H](C1CCCC1)n1cc(-c2ncnc3[nH]ccc23)cn1 [Ruxolitinib] | 100.5% | 97.7% | 93.9% | 94.4% | 102.4% | 99.7% | 100.1% | 99.7% | 94.7% | 92.5% | 96.2% | 97.2% | 11.4 ng/mL
10 | Cc1cc(Nc2ncc(Cl)c(Nc3ccccc3S(=O)(=O)C(C)C)n2)c(OC(C)C)cc1C1CCNCC1 [Ceritinib] | 95.1% | 100.1% | 97.1% | 98.1% | 100.8% | 103.5% | 101.3% | 106.5% | 96.9% | 99.9% | 97.6% | 97.5% | 871 ng/mL
11 | CCN1CCN(Cc2ccc(Nc3ncc(F)c(-c4cc(F)c5nc(C)n(C(C)C)c5c4)n3)nc2)CC1 [Abemaciclib] | 99.5% | 95.3% | 89.1% | 86.1% | 100.7% | 96.7% | 102.6% | 100.1% | 96.4% | 90.4% | 102.7% | 105.3% | 181 ng/mL
12 | CNC(=O)c1ccc(N2C(=S)N(c3ccc(C#N)c(C(F)(F)F)c3)C(=O)C2(C)C)cc1F [Enzalutamide] | 100.5% | 102.2% | 89.9% | 91.3% | 108.0% | 105.7% | 101.7% | 103.3% | 97.8% | 87.6% | 100.9% | 96.1% | 11400 ng/mL
13 | C[C@@H](Oc1cc(-c2cnn(C3CCNCC3)c2)cnc1N)c1c(Cl)ccc(F)c1Cl [Crizotinib] | 105.2% | 103.5% | 88.1% | 86.1% | 108.4% | 103.8% | 96.5% | 94.7% | 94.8% | 72.2% | 102.4% | 92.4% | 274 ng/mL
